Test results taken from paper PMC10632401, “Cell-free biosynthesis combined with deep learning accelerates de novo-development of antimicrobial peptides” (Nature Communications, 2023).

Columns and labels:
E. coli = type: cell-based, Escherichia coli; conditions: daily passage from cells grown at half-MIC, n=3
Escherichia coli MG1655 = experiment: Outer membrane vesicle (OMV) release after AMP treatment; type: cell-based; conditions: ¼ MIC, 90 min
Procedure: Escherichia coli MG1655 was grown on MacConkey agar (Carl Roth, Karlsruhe, Germany) plates overnight. For overnight culture, a single colony was used for inoculation of 2 mL LB media at 37 °C, 160 rpm (MaxQ 6000, Thermo Fisher Scientific, Karlsruhe, Germany). Bacterial culture was transferred to 10 mL fresh LB media and incubated (1 h, 37 °C, 160 rpm). The required amount of bacteria was treated with ¼ MIC of the AMPs #3, #5, #10, #13, #15, #16, and #27, left untreated for control or was treated with acetic acid and BSA as solvent control (90 min, 37 °C, 160 rpm). Samples were centrifuged (4,500 x g, 15 min, 4 °C; Multifuge X3R, Thermo Fisher Scientific), the supernatant was sterile filtered (0.22 µm) and afterwards concentrated by the factor of 20 using 100 kDa molecular weight cut-off filters (Merck KGaA, Darmstadt, Germany). To determine the number of released vesicles, samples were measured by nano-flow cytometry (nFCM) using a NanoAnalyzer (NanoFCM Co., Ltd, Nottingham, UK)[64].

Compound	increase in MIC during 21 days of serial passage (E. coli)	release of outer membrane vesicles (OMV) compared to untreated E. coli (Escherichia coli MG1655)
C[C@@H](O)[C@H]1C(=O)N2C(C(=O)O)=C(SCCN=CN)C[C@H]12 [imipenem]	up to 8 fold	–
polymyxin B	–	only significantly different group
